The target in the test is T1, human adenosine A2B receptors (Homo sapiens, UniProt P29275).
T1 construct: expressed in transfected cells
T1 sequence (P29275 1-332): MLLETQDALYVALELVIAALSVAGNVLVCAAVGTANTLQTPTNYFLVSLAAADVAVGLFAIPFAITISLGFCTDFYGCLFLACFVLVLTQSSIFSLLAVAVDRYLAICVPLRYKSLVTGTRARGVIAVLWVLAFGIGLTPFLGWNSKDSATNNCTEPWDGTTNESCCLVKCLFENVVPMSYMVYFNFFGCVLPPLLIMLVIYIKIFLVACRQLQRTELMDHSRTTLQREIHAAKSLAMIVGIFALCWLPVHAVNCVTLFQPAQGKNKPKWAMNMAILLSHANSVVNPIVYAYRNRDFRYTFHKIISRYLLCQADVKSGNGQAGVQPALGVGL
The test is described as follows: FLIPR calcium flux assay, adenosine A2B receptor expressing cells. It is filed as cell-based. The following applies: expressed human adenosine A2B receptors in mammalian cell lines, activity range. The procedure: The use of a Fluorometric Imaging Plate Reader (FLIPR) to measure calcium flux in Adenosine-receptor expressing cells is a well-established technique. In this assay calcium flux is triggered by receptor activation and measured through the fluorescence of an incorporated calcium-sensitive dye. The potencies shown were determined using expressed human adenosine A2B receptors in mammalian cell lines. Selectivity values were obtained by using mammalian cell lines expressing the human adenosine A1, A2A, and A3 receptors. Compound potency was determined from dose response curves and are reported as IC50 values.
(Calcium flux is commonly read through the fluorescence of an indicator in the cells.)

By IC50 is commonly meant the midpoint of a concentration-inhibition curve.

As for `CC(Nc1nc(C(=O)N2CCCC2)c2sccc2n1)c1cccnc1` (racemic) [Example 7, [2-(1-Pyridin-3-yl-ethylamino)-thieno[3,2-d]pyrimidin-4-yl]-pyrrolidin-1-yl-methanone], the IC50 was more than 500 nM. The value for `CCNC(=O)c1nc(NCc2cccnc2)nc2ccsc12` [Example 8, 2-[(Pyridin-3-ylmethyl)-amino]-thieno[3,2-d]pyrimidine-4-carboxylic acid ethylamide] was more than 500 nM; that for `O=C(c1nc(NCc2cccnc2)nc2ccsc12)N1CCCC1` [Example 9, {2-[(Pyridin-3-ylmethyl)-amino]-thieno[3,2-d]pyrimidin-4-yl}-pyrrolidin-1-yl-methanone] was less than 500 nM; that for `O=C(NC1CC1)c1nc(NCc2cccnc2)nc2ccsc12` [Example 10, 2-[(Pyridin-3-ylmethyl)-amino]-thieno[3,2-d]pyrimidine-4-carboxylic acid cyclopropylamide] was more than 500 nM. The result for `CC(C)NC(=O)c1nc(NCc2cccnc2)nc2ccsc12` [Example 11, 2-[(Pyridin-3-ylmethyl)-amino]-thieno[3,2-d]pyrimidine-4-carboxylic acid isopropylamide] reads less than 500 nM; that for `O=C(NC1CCCC1)c1nc(NCc2cccnc2)nc2ccsc12` [Example 12, 2-[(Pyridin-3-ylmethyl)-amino]thieno[3,2-d]pyrimidine-4-carboxylic acid cyclopentylamide], more than 500 nM; that for `CNC(=O)c1nc(NCc2cccnc2)nc2ccsc12` [Example 13, 2-[(Pyridin-3-ylmethyl)-amino]-thieno[3,2-d]pyrimidine-4-carboxylic acid methylamide], more than 500 nM.

For `O=C(NCCc1ccccc1)c1nc(NCc2cccnc2)nc2ccsc12` [Example 14, 2-[(Pyridin-3-ylmethyl)-amino]-thieno[3,2-d]pyrimidine-4-carboxylic acid phenethyl-amide], the IC50 is less than 500 nM. The value for `O=C(NC1CCCCC1)c1nc(NCc2cccnc2)nc2ccsc12` [Example 15, 2-[(Pyridin-3-ylmethyl)-amino]-thieno[3,2-d]pyrimidine-4-carboxylic acid cyclohexylamide] was less than 500 nM.

For the molecule `O=C(NCc1ccccc1)c1nc(NCc2cccnc2)nc2ccsc12` [Example 16, 2-[(Pyridin-3-ylmethyl)-amino]-thieno[3,2-d]pyrimidine-4-carboxylic acid benzylamide], the IC50 was less than 500 nM. The result for `COCCNC(=O)c1nc(NCc2cccnc2)nc2ccsc12` [Example 17, 2-[(Pyridin-3-ylmethyl)-amino]-thieno[3,2-d]pyrimidine-4-carboxylic acid (2-methoxy-ethyl)-amide] reads more than 500 nM; that for `O=C(NCc1cccnc1)c1nc(NCc2cccnc2)nc2ccsc12` [Example 18, 2-[(Pyridin-3-ylmethyl)-amino]-thieno[3,2-d]pyrimidine-4-carboxylic acid (pyridin-3-ylmethyl)-amide], more than 500 nM; that for `O=C(c1nc(NCc2cccnc2)nc2ccsc12)N1CCCCC1` [Example 19, Piperidin-1-yl-{2-[(pyridin-3-ylmethyl)-amino]-thieno[3,2-d]pyrimidin-4-yl}-methanone], more than 500 nM. The value for `CC(Nc1nc(C(=O)NC2CC2)c2sccc2n1)c1cccnc1` (centres unmarked) [Example 20, 2-(1-Pyridin-3-yl-ethylamino)-thieno[3,2-d]pyrimidine-4-carboxylic acid cyclopropylamide] was less than 500 nM; that for `Nc1nc(C(=O)NC2CC2)c2sccc2n1` [Example 21, 2-Amino-thieno[3,2-d]pyrimidine-4-carboxylic acid cyclopropylamide] was more than 500 nM. The result for `C[C@@H](Nc1nc(C(=O)N2CCCC2)c2sccc2n1)c1cccnc1` [Example 22] reads more than 500 nM; that for `C[C@H](Nc1nc(C(=O)N2CCCC2)c2sccc2n1)c1cccnc1` [Example 23, (S)-[2-(1-Pyridin-3-yl-ethylamino)-thieno[3,2-d]pyrimidin-4-yl]-pyrrolidin-1-yl-methanone], less than 500 nM.

The values are drawn from US8354415B2, “Thienopyrimidine compounds and compositions” (Vernalis (R&D) Ltd., priority 2007, dated 2013).
